Assays:
[1] = tested on: reconstituted human epidermis Epi-200 EpiDerm™; experiment: Release of IL-1α in the culture medium (ELISA); conditions: 18-hour treatment; Tukey Kramer Multiple Comparisons Test
Source text: Further information for better defining the irritation potential was obtained from subsequent measurement of the following parameters: • evaluation of the release, in the culture medium, of the lactate dehydrogenase (LDH), a cytoplasmic enzyme, release of which indicates loss of integrity of the cellular membrane; • evaluation of the release, in the culture medium, of pro-inflammatory cytokine by means of ELISA (Enzyme Linked Immunosorbent Assay).
Tissue used: EPI-200-SIT EpiDerm™
Culture medium: EPI-100-MM-HCF-60
(§1) Incubation conditions: +37° C. in a 5% CO2 atmosphere
(§2) Treatment with the sample: • continuous contact and incubation for 18 hours (single) • continuous contact and incubation for 7 days (double)
(§3) Application was carried out by applying about 1 cm^2 of sample (i.e. of the sheet according to the invention obtained as per the example given above) per insert.
Controls Performed for the First Evaluation (18 hours): • Negative control after 18 hours: inserts not treated • Positive control: inserts treated with 0.5% SDS (Sodium Dodecylsulphate) in sterile water during 18 hours of incubation; […]
Evaluation in the culture medium obtained after the period of incubation of the sample with EPI-200. The release is measured by means of specific ELISA.

[2] = tested on: reconstituted human epidermis Epi-200 EpiDerm™; experiment: Cytotoxicity by release of lactate dehydrogenase (LDH) in the culture medium; conditions: 18-hour treatment; Tukey Kramer Multiple Comparisons Test
Procedure: Tissue used: EPI-200-SIT EpiDerm™
Culture medium: EPI-100-MM-HCF-60
as §1, §2, §3
(§4) Controls Performed for the First Evaluation (18 hours): • Negative control after 18 hours: inserts not treated • Positive control: inserts treated with 0.5% SDS (Sodium Dodecylsulphate) in sterile water during 18 hours of incubation;
(§5) Controls Performed for the 7-Day Evaluation: • Negative control: inserts not treated with the sample and kept for 7 days in the same incubation conditions as those treated with the sample.
Evaluation of the Cytotoxicity by Means of Measurement of the Release of the Lactate Dehydrogenase (LDH) in the Culture Medium:
Evaluation in the culture medium obtained after the incubation period of the sample with the epidermis model. The culture medium is incubated with a specific reagent so as to allow quantitive determination of the lactate dehydrogenase at 490 nm.

[3] = tested on: reconstituted human epidermis Epi-200 EpiDerm™; experiment: Cellular vitality by MTT assay on reconstituted epidermis (EpiDerm Skin Irritation Test, cumulative irritation); conditions: 18-hour treatment
Procedure: The assay in question was based on the In vitro Epiderm™ Skin Irritation Test (EPI-200-SIT) developed by the MatTek Corporation, which uses the model of reconstituted human epidermis Epi-200 EpiDerm™.
The assay consists in topical application of the material under testing on the reconstituted epidermis for contact times equal to or greater than 18 hours. The irritation potential is determined by means of evaluation of the cellular vitality using the MTT assay.
Tissue used: EPI-200-SIT EpiDerm™
Culture medium: EPI-100-MM-HCF-60
as §1, §2, §4, §5
MTT assay: colorimetric determination of the vitality of the keratinocytes of the insert based on the reduction of the yellow tetrazolium salts (MTT) to blue formazan by mitochondrial dehydrogenases.
continuous stimulation (overnight contact and incubation)

Question: For `CCCCCCCCCCCCOS(=O)(=O)[O-].[Na+]` [Positive control, Sodium Dodecylsulphate], which “Statistical comparison of IL-1α release in relation to the negative control” value [1] is on record?
Answer: *** (*** p < 0.001 extremely significant variation)

Question: And the “Statistical comparison of LDH release in relation to the negative control” value [2]?
Answer: *** (*** p < 0.001 extremely significant variation)

Question: And the “Average value of OD ± SD” value ([3]; continuous contact)?
Answer: 0.185 ± 0.004

Question: What about the “Average value of the % vitality” value ([3]; relative to negative control = 100%) of the same compound?
Answer: 8.40 ± 0.17%

— patent US20160089471A1, “SHEET FOR CUTANEOUS APPLICATION CONTAINING VITAMIN E OR AN ESTER THEREOF” (BIO.LO.GA. S.R.L., priority 2013, published 2016)
